Experimental data taken from PMC11785157 (bioRxiv, 2025).
Read-outs that look alike come from different tables or passages of the source.

Legend:
[1] = test system: alphaviruses (CHIKV, SFV, SINV-HRsp, SINV-AR86, VEEV TC83 and RRV); test: microbe, parasite or virus in culture; format: cell-based
SINV AR86 [2] = test: microbe, parasite or virus in culture; format: cell-based, Sindbis virus; settings: for EC50: Sindbis virus, Huh-7, 72 h, read-out: EC50 SINV AR86
SFV [3] = test: microbe, parasite or virus in culture; format: cell-based; settings: Semliki Forest virus, Vero, 72 h, read-out: EC50 SFV
CHIKV [4] = settings: SOF 20 mg/kg/day; cited from earlier work
in vitro [5] = settings: human
CHIKV [6] = test: CPE reduction assay, CHIKV in Vero cells; format: cell-based, chikungunya virus; settings: read-out: EC50 CHIKV
RRV [7] = test: microbe, parasite or virus in culture; format: cell-based; settings: Ross River virus, Vero, 72 h, read-out: EC50 RRV
VEEV TC83 [8] = test: microbe, parasite or virus in culture; format: cell-based; settings: Venezuelan equine encephalitis virus, Vero, 72 h, read-out: EC50 VEEV TC83
CHIKV [9] = settings: SOF 40-80 mg/kg/day; cited from earlier work
CHIKV [10] = test: CPE reduction assay, CHIKV in skin fibroblasts; format: cell-based, chikungunya virus; settings: read-out: EC50 CHIKV
alphaviruses [11] = test: organism not typed; format: cell-based
SINV HRsp [12] = test: microbe, parasite or virus in culture; format: cell-based; settings: Sindbis virus, Vero, 72 h, read-out: EC50 SINV HRsp
SFV [13] = test: microbe, parasite or virus in culture; format: cell-based; settings: Semliki Forest virus, Skin fibroblast, 72 h, read-out: EC50 SFV
RRV [14] = test: microbe, parasite or virus in culture; format: cell-based; settings: Ross River virus, Skin fibroblast, 72 h, read-out: EC50 RRV
SINV HRsp [15] = test: microbe, parasite or virus in culture; format: cell-based, Sindbis virus; settings: for EC50: Sindbis virus, Huh-7, 72 h, read-out: EC50 SINV HRsp
CHIKV [16] = test: CHIKV-induced foot swelling in AG129 mice; format: in vivo
VEEV TC83 [17] = test: microbe, parasite or virus in culture; format: cell-based, Venezuelan Equine Encephalitis virus; settings: for EC50: Venezuelan equine encephalitis virus, Huh-7, 72 h, read-out: EC50 VEEV TC83
in vitro [18] = settings: African green monkey
in vitro [19] = settings: human; remark: listed apart in the source
SINV AR86 [20] = test: microbe, parasite or virus in culture; format: cell-based; settings: Sindbis virus, Vero, 72 h, read-out: EC50 SINV AR86
CHIKV [21] = test: Viral RNA levels in CHIKV-infected AG129 mice; format: in vivo; settings: day 3 pi
CHIKV [22] = test: Infectious virus titres in CHIKV-infected AG129 mice; format: in vivo
[23] = mouse, in vivo
alphaviruses [24] = format: cell-based
[25] = Chikungunya virus, Skin fibroblast, 72 h
[26] = combination study, day 2 pi, MPV 10 mg/kg, SOF 80 mg/kg or both (80 + 10 mg/kg), oral
[27] = MPV 10, 50, 100 mg/kg, day 3 pi

Row | Compound | antiviral activity against SINV AR86 (in words) (SINV AR86 [2]) | EC50 (SINV AR86 [2]) | EC50 (SFV [3]) | CC50 (in vitro [5]) | EC50 (CHIKV [6]; Chikungunya virus, Vero, 72 h) | EC50 (RRV [7]) | EC50 (VEEV TC83 [8]) | EC50 (CHIKV [10]; [25]) | EC50 (SINV HRsp [12]) | EC50 (SFV [13]) | EC50 (RRV [14]) | EC50 (SINV HRsp [15]) | reduction of foot swelling compared to vehicle (CHIKV [16]; [26]) | antiviral activity against VEEV TC83 (in words) (VEEV TC83 [17]) | EC50 (VEEV TC83 [17]) | CC50 (in vitro [18]) | CC50 (in vitro [19]) | further results
1 | CC(C)OC(=O)[C@H](C)N[P@](=O)(OC[C@H]1O[C@@H](n2ccc(=O)[nH]c2=O)[C@](C)(F)[C@@H]1O)Oc1ccccc1 [SOF, Sofosbuvir] | did not inhibit | > 50 µM | > 100 µM | 280 ± 13 µM | > 100 µM | > 100 µM | > 100 µM | 15 ± 3 µM | > 100 µM | 17 ± 3 µM | 20 ± 7 µM | 44 ± 3 µM | 25% | did not inhibit | > 50 µM | 350 ± 14 µM | 271 ± 95 µM | antiviral activity [1]: no antiviral activity; foot swelling (CHIKV [4]): slightly reduced; reduction of viral RNA in the joint (CHIKV [4]): < 1 log gc/ml; survival (CHIKV [9]): improved survival; EC50 (alphaviruses [11]; Skin fibroblast, read-out: EC50 values against all alphaviruses tested): 12 to 20 µM; effect on foot swelling (in words) (CHIKV [16]; SOF 40 and 80 mg/kg oral twice daily, over the course of the infection): did not significantly improve; reduction of foot swelling compared to vehicle (CHIKV [16]; combination study, day 3 pi, MPV 10 mg/kg, SOF 80 mg/kg or both (80 + 10 mg/kg), oral): no reduction
2 | NC(=O)c1nc(F)c[nH]c1=O [FAV, favipiravir] | active | 29 ± 18 µM | 33 ± 6 µM | > 500 µM | 35 ± 14 µM | 15 ± 12 µM | 13 µM | 143 ± 5 µM | 52 ± 18 µM | 382 µM | > 200 µM | 22 ± 7 µM | – | active | 112 µM | 374 ± 17 µM | > 500 µM | EC50 ([1]; Chikungunya virus, Vero, read-out: EC50 values against all alphaviruses tested): 13 to 52 µM; antiviral efficacy (in words) (alphaviruses [11]): only effective against CHIKV; antiviral activity against SINV HRsp (in words) (SINV HRsp [15]): active; EC50 (SINV AR86 [20]): 17 ± 2 µM
3 | CC(C)C(=O)OC[C@H]1O[C@@H](n2ccc(NO)nc2=O)[C@H](O)[C@@H]1O [MPV, Molnupiravir] | – | – | – | – | – | – | – | – | – | – | – | – | 19% | – | – | – | – | viral RNA in contralateral ankle (in words) (CHIKV [21]; MPV 10, 50, 100 mg/kg): dose-dependent decreases; viral RNA in serum (in words) (CHIKV [21]; MPV 10, 50, 100 mg/kg): significantly reduced; viral RNA in left ankle (in words) (CHIKV [21]; highest dose of MPV): significant decreases; EC50 values against all alphaviruses tested (in words) (alphaviruses [11]): sub to low single-digit micromolar range; effect on foot swelling (in words) (CHIKV [16]; MPV 10 mg/kg oral twice daily, dose-response study): did not significantly improve swelling; reduction of foot swelling compared to vehicle (CHIKV [16]; MPV 50 mg/kg oral twice daily, day 2 pi): 22%; reduction of foot swelling compared to vehicle (CHIKV [16]; MPV 50 mg/kg oral twice daily, day 3 pi): 55%; reduction of foot swelling compared to vehicle (CHIKV [16]; MPV 100 mg/kg oral twice daily, day 2 pi): 20%; reduction of foot swelling compared to vehicle (CHIKV [16]; MPV 100 mg/kg oral twice daily, day 3 pi): 62%; infectious virus in contralateral ankle (in words) (CHIKV [22]; [27]): dose-dependent decreases; infectious virus in serum (in words) (CHIKV [22]; [27]): dose-dependent decreases; infectious CHIKV in serum (in words) (CHIKV [22]; MPV all doses (10, 50, 100 mg/kg), day 2 pi): suppressed infectious CHIKV; reduction of infectious virus titres in serum (CHIKV [22]; combination study, day 3 pi, MPV 10 mg/kg, SOF 80 mg/kg or both): 1 log10 TCID50/mL; infectious virus in left ankle (in words) (CHIKV [22]; highest dose of MPV, day 3 pi): significant decreases; tolerability [23]: well-tolerated; EC50 values, pan-alphavirus (in words) (alphaviruses [24]): sub to low single-digit micromolar range
4 | O=c1nc(NO)ccn1[C@@H]1O[C@H](CO)[C@@H](O)[C@H]1O [EIDD-1931] | – | – | – | – | – | – | – | – | – | – | – | – | – | – | – | – | – | EC50 (CHIKV [6]; Vero cells, 72 h pi, MTS): 0.7 µM; CC50 (Human skin fibroblasts): 140 ± 19 µM; EC50 (CHIKV [10]; Skin fibroblasts, 72 h pi, MTS): 0.9 µM; CC50 (Vero cells): > 200 µM; CC50 (Huh7 cells): 22 ± 11 µM
